The CheMixHub ionic liquid set

Experiment: xn = mol fraction of the nth substance listed

CCCC[N+]1(C)CCCC1.F[P-](F)(F)(F)(F)F + CCCC[n+]1cccc(C)c1.F[P-](F)(F)(F)(F)F
101.3 kPa
Details | viscosity [mPa·s]
308.15 K, x2 = 0.4 | 535
313.15 K, x2 = 0.4 | 390
318.15 K, x2 = 0.4 | 290
318.15 K, x2 = 0.5 | 262
328.15 K, x2 = 0.4 | 170
328.15 K, x2 = 0.7 | 123
328.15 K, x2 = 0.9 | 102
333.15 K, x2 = 0.6 | 108
338.15 K, x2 = 0.5 | 96
343.15 K, x2 = 0.2 | 110
343.15 K, x2 = 0.4 | 86
343.15 K, x2 = 0.6 | 70
348.15 K, x2 = 0.6 | 57
353.15 K, x2 = 0.4 | 58
358.15 K, x2 = 0.2 | 61
358.15 K, x2 = 0.4 | 48
363.15 K, x2 = 0.5 | 37
363.15 K, x2 = 0.6 | 34

COCCCn1cc[n+](C)c1.O=S(=O)([N-]S(=O)(=O)C(F)(F)F)C(F)(F)F + O
Details | viscosity [mPa·s]
283 K, 101 kPa, x1 = 0.8316 | 82.6

CC#N + CC[n+]1ccn(C)c1C.F[B-](F)(F)F
101.3 kPa, x2 = 0
Details | viscosity [mPa·s]
293.15 K | 0.361
298.15 K | 0.346
303.15 K | 0.332
308.15 K | 0.32
313.15 K | 0.309
318.15 K | 0.298
323.15 K | 0.288
328.15 K | 0.279
333.15 K | 0.271

CCCC[n+]1ccn(C)c1.F[P-](F)(F)(F)(F)F + c1ccncc1
298.15 K, 101 kPa, x2 = 0.4915
Details | electrical conductivity [S/m] | viscosity [mPa·s]
– | 0.819 | 21.8

CC#N + C[N+](C)(C)CCC[N+]1(C)CCCCC1.N#C[N-]C#N.N#C[N-]C#N
100 kPa, x2 = 0
Details | viscosity [mPa·s]
288.15 K | 0.382
298.15 K | 0.348
303.15 K | 0.333
333.15 K | 0.266
